Test results from patent US12662489B2 (Sitryx Therapeutics Limited, priority 2023, dated 2026).

Key:
[1] = target: T1, MTHFD2 recombinant human enzyme (Homo sapiens, UniProt P13995); test: MTHFD2 inhibition assay (NAD(P)H-Glo luminescence); conditions: for MTHFD1/MTHFD2 IC50 ratio: selectivity of MTHFD2 inhibition over MTHFD1, band
T1 sequence (P13995 36-350): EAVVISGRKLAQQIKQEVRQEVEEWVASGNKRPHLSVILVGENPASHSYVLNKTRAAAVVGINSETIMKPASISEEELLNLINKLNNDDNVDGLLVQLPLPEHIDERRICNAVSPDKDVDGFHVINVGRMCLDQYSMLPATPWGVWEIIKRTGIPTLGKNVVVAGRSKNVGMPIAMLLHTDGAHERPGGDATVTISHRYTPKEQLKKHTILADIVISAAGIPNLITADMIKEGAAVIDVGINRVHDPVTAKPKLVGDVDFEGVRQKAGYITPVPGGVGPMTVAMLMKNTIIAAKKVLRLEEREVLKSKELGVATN

[2] = target: T2, MTHFD1 recombinant human enzyme (Homo sapiens, UniProt P11586); test: MTHFD1 inhibition assay (NAD(P)H-Glo luminescence); conditions: MTHFD1 IC50, recombinant human enzyme 200 nM, NADP, band
T2 sequence (P11586 2-291 limits assumed): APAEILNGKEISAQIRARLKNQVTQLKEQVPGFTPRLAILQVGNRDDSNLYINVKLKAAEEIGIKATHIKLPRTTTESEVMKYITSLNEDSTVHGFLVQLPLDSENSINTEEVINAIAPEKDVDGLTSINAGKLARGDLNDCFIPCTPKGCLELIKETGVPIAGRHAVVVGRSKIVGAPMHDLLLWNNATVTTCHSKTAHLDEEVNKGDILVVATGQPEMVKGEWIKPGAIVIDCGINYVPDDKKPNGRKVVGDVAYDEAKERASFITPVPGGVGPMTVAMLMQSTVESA

Row | Structure (SMILES) | IC50 [1] | MTHFD1/MTHFD2 IC50 ratio [1] | IC50 [2]
1 | COC[C@H]1CN(c2cc(Cl)c3c4c(c(=O)oc3c2C)CN(C(=O)c2cc(N(C)C)c(C(=O)NS(=O)(=O)N3CCC[C@@H]3COC)cc2F)CC4)CCN1C [Example 290, 4-(10-chloro-8-((R)-3-(methoxymethyl)-4-methylpiperazin-1-yl)-7-methyl-5-oxo-1,3,4,5-tetrahydro-2H-chromeno[3,4-c]pyridine-3-carbonyl)-2-(dimethylamino)-5-fluoro-N-(((R)-2-(methoxymethyl)pyrrolidin-1-yl)sulfonyl)benzamide] | 10 to 100 nM | J (>30) | 100 to 1000 nM
2 | COC[C@H]1CN(c2cc(Cl)c3c4c(c(=O)oc3c2C)CN(C(=O)c2cc(N(C)C)c(C(=O)NS(=O)(=O)N3CCC(C(F)(F)F)CC3)cc2F)CC4)CCN1C [Example 293, (R)-4-(10-chloro-8-(3-(methoxymethyl)-4-methylpiperazin-1-yl)-7-methyl-5-oxo-1,3,4,5-tetrahydro-2H-chromeno[3,4-c]pyridine-3-carbonyl)-2-(dimethylamino)-5-fluoro-N-((4-(trifluoromethyl)piperidin-1-yl)sulfonyl)benzamide] | 10 to 100 nM | J (>30) | 100 to 1000 nM
3 | COC[C@H]1CN(c2cc(Cl)c3c4c(c(=O)oc3c2C)CN(C(=O)c2cc(N(C)C)c(C(=O)NS(=O)(=O)N3CCC[C@H]3C(F)(F)F)cc2F)CC4)CCN1C [Example 295, 4-(10-chloro-8-((R)-3-(methoxymethyl)-4-methylpiperazin-1-yl)-7-methyl-5-oxo-1,3,4,5-tetrahydro-2H-chromeno[3,4-c]pyridine-3-carbonyl)-2-(dimethylamino)-5-fluoro-N-(((S)-2-(trifluoromethyl)pyrrolidin-1-yl)sulfonyl)benzamide] | 10 to 100 nM | J (>30) | 1000 to 5000 nM
4 | COC[C@H]1CN(c2cc(C)c3c4c(c(=O)oc3c2C)CN(C(=O)c2cc(N(C)C)c(C(=O)NS(=O)(=O)N3CCC(C(F)(F)F)CC3)cc2F)CC4)CCN1C [Example 296, (R)-2-(dimethylamino)-5-fluoro-4-(8-(3-(methoxymethyl)-4-methylpiperazin-1-yl)-7,10-dimethyl-5-oxo-1,3,4,5-tetrahydro-2H-chromeno[3,4-c]pyridine-3-carbonyl)-N-((4-(trifluoromethyl)piperidin-1-yl)sulfonyl)benzamide] | 10 to 100 nM |  | 100 to 1000 nM
5 | COC[C@H]1CN(c2cc(Cl)c3c4c(c(=O)oc3c2C)CN(C(=O)c2cc(OC)c(C(=O)NS(=O)(=O)N(C3CC3)C3CC3)cc2F)CC4)CCN1C [Example 297, (R)-4-(10-chloro-8-(3-(methoxymethyl)-4-methylpiperazin-1-yl)-7-methyl-5-oxo-1,3,4,5-tetrahydro-2H-chromeno[3,4-c]pyridine-3-carbonyl)-N-(N,N-dicyclopropylsulfamoyl)-5-fluoro-2-methoxybenzamide] | 10 to 100 nM | H (>9.0 to 30) | 100 to 1000 nM
6 | CCOc1cc(C(=O)N2CCc3c(c(=O)oc4c(C)c(N5CCN(C)[C@@H](COC)C5)cc(Cl)c34)C2)c(F)cc1C(=O)NS(=O)(=O)N(C)C1CC1 [Example 298, (R)-4-(10-chloro-8-(3-(methoxymethyl)-4-methylpiperazin-1-yl)-7-methyl-5-oxo-1,3,4,5-tetrahydro-2H-chromeno[3,4-c]pyridine-3-carbonyl)-N-(N-cyclopropyl-N-methylsulfamoyl)-2-ethoxy-5-fluorobenzamide] | 10 to 100 nM | G (^ 3 to 9.0) | 100 to 1000 nM
7 | CCOc1cc(C(=O)N2CCc3c(c(=O)oc4c(C)c(N5CCN(C)[C@@H](COC)C5)cc(Cl)c34)C2)c(F)cc1C(=O)NS(=O)(=O)C1(C)CC1 [Example 299, (R)-4-(10-chloro-8-(3-(methoxymethyl)-4-methylpiperazin-1-yl)-7-methyl-5-oxo-1,3,4,5-tetrahydro-2H-chromeno[3,4-c]pyridine-3-carbonyl)-2-ethoxy-5-fluoro-N-((1-methylcyclopropyl)sulfonyl)benzamide] | 10 to 100 nM | H (>9.0 to 30) | 100 to 1000 nM
8 | CCOc1cc(C(=O)N2CCc3c(c(=O)oc4c(C)c(N5CCN(C)[C@@H](COC)C5)cc(Cl)c34)C2)c(F)cc1C(=O)NS(=O)(=O)N1CC2(CCC2)C1 [Example 300, (R)-N-((2-azaspiro[3.3]heptan-2-yl)sulfonyl)-4-(10-chloro-8-(3-(methoxymethyl)-4-methylpiperazin-1-yl)-7-methyl-5-oxo-1,3,4,5-tetrahydro-2H-chromeno[3,4-c]pyridine-3-carbonyl)-2-ethoxy-5-fluorobenzamide] | 10 to 100 nM |  | 100 to 1000 nM
9 | CCOc1cc(C(=O)N2CCc3c(c(=O)oc4c(C)c(N5CCN(C)[C@@H](COC)C5)cc(Cl)c34)C2)c(F)cc1C(=O)NS(=O)(=O)N1CC2CCC(C1)O2 [Example 301, N-((8-oxa-3-azabicyclo[3.2.1]octan-3-yl)sulfonyl)-4-(10-chloro-8-((R)-3-(methoxymethyl)-4-methylpiperazin-1-yl)-7-methyl-5-oxo-1,3,4,5-tetrahydro-2H-chromeno[3,4-c]pyridine-3-carbonyl)-2-ethoxy-5-fluorobenzamide] | 10 to 100 nM | J (>30) | 100 to 1000 nM
10 | COC[C@H]1CN(c2cc(F)c3c4c(c(=O)oc3c2C)CN(C(=O)c2cc(OC)c(C(=O)NS(=O)(=O)N3C5CCC3CC5)cc2F)CC4)CCN1C [Example 305, (R)-N-((7-azabicyclo[2.2.1]heptan-7-yl)sulfonyl)-5-fluoro-4-(10-fluoro-8-(3-(methoxymethyl)-4-methylpiperazin-1-yl)-7-methyl-5-oxo-1,3,4,5-tetrahydro-2H-chromeno[3,4-c]pyridine-3-carbonyl)-2-methoxybenzamide] | 10 to 100 nM | J (>30) | 1000 to 5000 nM
11 | COC[C@H]1CN(c2cc(Cl)c3c4c(c(=O)oc3c2C)CN(C(=O)c2cc(OC3CC3)c(C(=O)NS(=O)(=O)N(C)C)cc2F)CC4)CCN1C [Example 306, (R)-4-(10-chloro-8-(3-(methoxymethyl)-4-methylpiperazin-1-yl)-7-methyl-5-oxo-1,3,4,5-tetrahydro-2H-chromeno[3,4-c]pyridine-3-carbonyl)-2-cyclopropoxy-N-(N,N-dimethylsulfamoyl)-5-fluorobenzamide] | 10 to 100 nM | J (>30) | 100 to 1000 nM
12 | COC[C@H]1CN(c2cc(Cl)c3c4c(c(=O)oc3c2C)CN(C(=O)c2cc(OC3CC3)c(C(=O)NS(=O)(=O)N3C5CCC3COC5)cc2F)CC4)CCN1C [Example 307, N-((3-oxa-8-azabicyclo[3.2.1]octan-8-yl)sulfonyl)-4-(10-chloro-8-((R)-3-(methoxymethyl)-4-methylpiperazin-1-yl)-7-methyl-5-oxo-1,3,4,5-tetrahydro-2H-chromeno[3,4-c]pyridine-3-carbonyl)-2-cyclopropoxy-5-fluorobenzamide] | 10 to 100 nM |  | 1000 to 5000 nM
13 | COC[C@H]1CN(c2cc(F)c3c4c(c(=O)oc3c2C)CN(C(=O)c2cc(OC)c(C(=O)NS(=O)(=O)N3CCCC3)cc2F)CC4)CCN1C [Example 309, (R)-5-fluoro-4-(10-fluoro-8-(3-(methoxymethyl)-4-methylpiperazin-1-yl)-7-methyl-5-oxo-1,3,4,5-tetrahydro-2H-chromeno[3,4-c]pyridine-3-carbonyl)-2-methoxy-N-(pyrrolidin-1-ylsulfonyl)benzamide] | 10 to 100 nM | J (>30) | 1000 to 5000 nM
